Results taken from patent US20180207111A1, “IMMUNOTHERAPY FOR CASR-EXPRESSING CANCER (E.G. NEUROBLASTOMA)” (HOSPITAL SANT JOAN DE DEU, priority 2015, published 2018).

Tests used:
[1] = tested on: normal surrounding tissues; experiment: Genome-wide expression analysis of murine genes in xenograft RNAs, Affymetrix Mouse Gene Array 2.1 ST; format: in vivo
Experimental: Genome-wide expression analyses were performed using Affymetrix Human and Mouse Gene Array 2.1 ST (Affymetrix, reference number 902136 for human gene array and 902120 for mouse gene array) as per manufacturer's protocol. Procedures to analyze results included: Quality control of the arrays (following this step, xenograft C6 was removed from further analyses); filtering and normalization; selection of differentially expressed genes; single comparison (treated versus control samples); list of differentially expressed genes ranked by significance; Volcano plots showing the most differentially expressed genes; heatmaps of the clustered expression profiles; and analysis of biological significance through enrichment analysis against the Gene Ontologies, KEGG (Kyoto Encyclopedia of Genes and Genomes) and Ingenuity pathways.
In order to evaluate whether upregulation of CTAs was a tumor-specific effect or it was induced in normal surrounding tissues as well, a genome-wide expression analysis by means of microarrays was conducted using a chip to detect murine genes differentially expressed in the same RNAs analyzed in the human array.

SK-N-LP CaSR/GFP = experiment: RT-qPCR mRNA expression in SK-N-LP CaSR/GFP neuroblastoma cells grown with Cinacalcet; format: cell-based, Homo sapiens; settings: 1 μM Cinacalcet vs DMSO, up to 21 days
Experimental: (§1) Three neuroblastoma cell lines LA-N-1, SK-N-LP and SH-SY5Y were used for this purpose. […] No expression of the CaSR is detectable in SH-SY5Y either. Thus, SK-N-LP and SH-SY5Y were stably transfected with pCMV-CaSR-GFP or pCMV-GFP. All cell lines were grown in the presence of 1 μM Cinacalcet (Selleck Chemicals, S1260) or DMSO for 21 days in P100 plates. Morphology was assessed daily. Total RNA was isolated at days 1, 3, 5, 7, 10, 14 and 21. Several markers were analyzed by RT-qPCR using SYBRgreen and specific primers or Taqman technology and gene-specific Assays-on-Demand (Applied Biosystems) (Table 1).
(§2) These features reached maximal expression between days 7 and 14 (FIG. 1). […] Neuroblastoma cytodifferentiation is an indication of this tumor becoming more benign, less proliferative. […] Moreover, upregulation of these differentiation-associated genes and CTAs both in vitro and in vivo (see Examples 2-4) validates the proposed in vitro model (doses used, time of exposure, etc) as a good model to evaluate neuroblastoma response to treatment with Cinacalcet.

LA-N-1 cells = experiment: Morphological assessment of neuroblastoma cells exposed to Cinacalcet; format: cell-based, Homo sapiens; settings: 1 μM Cinacalcet vs DMSO; day 3
Experimental: FIG. 1 is a micrograph showing the morphological assessment of LA-N-1 cells exposed to 1 μM Cinacalcet (C) or DMSO (vehicle (V)) for 3 days (3d) and 14 days (14d).
as §1, §2

[2] = tested on: LA-N-1 cells subcutaneous xenograft; experiment: In vivo neuroblastoma model: tumor growth / event-free survival; set-up: species or system mice; settings: 10 mg/kg/day oral gavage 6 days per week vs vehicle; log-rank P=0.034; FIG. 2A
Experimental: An in vivo model of neuroblastoma was generated in four to six-week-old female athymic Nude-Foxn1 nu/nu mice (Charles Rivers), wherein LA-N-1 cells (10^7) were subcutaneously inoculated. Tumors were allowed to grow until dimensions reached 7×7 mm. Then mice were randomized to receive either vehicle (described below) or Cinacalcet (10 mg/kg/day) by oral gavage 6 days per week until tumor volume reached 2 cm^3. Cinacalcet was prepared with Mimpara® tablets (Amgen). Following homogenization of the Mimpara® tablets in a mortar, the resulting powder was reconstituted with 0.5% Tween 20 (20%, v/v) and carboxymethylcellulose (0.25%, w/v) to a final concentration of […]. Each dose contained 5 μL of this mixture per gram of mouse weight. Dimensions of tumors were measured thrice a week using a digital caliper. Tumor volume was calculated as L×W^2/2 in which “L” indicates length in mm and “W” indicates width in mm. At the end of the experiment (each mouse was sacrificed when the corresponding xenograft reached the final pre-determined volume 2 cm^3), tumors were excised and half of each specimen was frozen in liquid nitrogen for molecular analyses and the other was fixed in 10% formalin. For event-free survival (EFS) analysis, an event was defined as tumor size that exceeded 2 cm^3. The log-rank statistic was used to compare the EFS probabilities between groups. […]

LA-N-1 = experiment: RT-qPCR mRNA expression in LA-N-1 neuroblastoma cells grown with Cinacalcet; format: cell-based, Homo sapiens; settings: 1 μM Cinacalcet vs DMSO, up to 21 days
Experimental: as §1, §2

[3] = Plasmatic ionic Ca2+ and tolerability in xenograft-bearing mice; format: in vivo
Excerpt: FIG. 2 comprises graphs showing (A) Effect of Cinacalcet treatment on survival (%) in an in vivo neuroblastoma model treated with Cinacalcet (triangle) or vehicle (circle) over time (days); (B) Plasmatic ionic Ca^2+ concentrations (mmol/L) in mice receiving Cinacalcet (triangle) or vehicle (circle) over time (weeks).
An in vivo model of neuroblastoma was generated in four to six-week-old female athymic Nude-Foxn1 nu/nu mice (Charles Rivers), wherein LA-N-1 cells (10^7) were subcutaneously inoculated. Tumors were allowed to grow until dimensions reached 7×7 mm. Then mice were randomized to receive either vehicle (described below) or Cinacalcet (10 mg/kg/day) by oral gavage 6 days per week until tumor volume reached 2 cm^3. Cinacalcet was prepared with Mimpara® tablets (Amgen). […] Dimensions of tumors were measured thrice a week using a digital caliper. Tumor volume was calculated as L×W^2/2 in which “L” indicates length in mm and “W” indicates width in mm. At the end of the experiment (each mouse was sacrificed when the corresponding xenograft reached the final pre-determined volume 2 cm^3), tumors were excised and half of each specimen was frozen in liquid nitrogen for molecular analyses and the other was fixed in 10% formalin. […]

[4] = Mus musculus genes in xenograft RNAs, Cinacalcet vs vehicle, adjusted P 0.80678117

## C[C@@H](NCCCc1cccc(C(F)(F)F)c1)c1cccc2ccccc12 [Cinacalcet]
[1]; Mus musculus genes in xenograft RNAs, Cinacalcet vs vehicle, adjusted P 0.60678117
  Log fold change, murine probe 17395227 (Gm14399): 1.067
[1]; Mus musculus genes in xenograft RNAs, Cinacalcet vs vehicle, adjusted P 0.80676117
  Log fold change, murine probe 17262250 (Tgtp2//Tgtp1): 1.108
[1]; [4]
  Log fold change, murine probe 17302054 (Snora31): 1.105
  Log fold change, murine probe 17352957 (Dsc1): 1.033
  Log fold change, murine probe 17380529 (Gm14419//Gm14391//Gm6710): 1.033
  Log fold change, murine probe 17386477 (Gm11084): 1.567
  Log fold change, murine probe 17458439 (Gpnmb): 1.221
  Log fold change, murine probe 17483098 (Gdpd3): 1.309
  Log fold change, murine probe 17503825 (Mmp2): 1.046
  Log fold change, murine probe 17546762 (LOC101055644//Mid1//MID1): 1.088
  Log fold change, murine probe 17546774 (Erdr1//Dock9): 1.341
[1]; murine microarray, also when C9-C11 analyzed, no gene significant (adjusted P-value >0.05)
  Upregulation of CTAs in normal surrounding (murine) tissues: CTAs were not amongst the over-expressed genes
SK-N-LP CaSR/GFP
  CTCFL mRNA fold increase: no expression
  MAGEA2 mRNA fold increase: 36.6 fold
  MAGEA3 mRNA fold increase: 155.4 fold
  NFL mRNA fold increase: 7.2 fold
  NTRK1 mRNA fold increase: 3.6 fold
  NTRK3 mRNA fold increase: 2.6 fold
  S100-β mRNA fold increase: 72.3 fold
  SSX4/4B mRNA fold increase: 69 fold
  TUBB3 mRNA fold increase: 2.8 fold
SK-N-LP CaSR/GFP; primer pair GAGE P1
  GAGE-P1 mRNA fold increase: 4.1 fold
SK-N-LP CaSR/GFP; primer pair GAGE P2
  GAGE-P2 mRNA fold increase: 5.7 fold
SK-N-LP CaSR/GFP; primer pair GAGE P3
  GAGE-P3 mRNA fold increase: 6.3 fold
LA-N-1 cells
  Morphological features of neuronal differentiation: extensive neurite outgrowth
[2]
  Tumor growth (event-free survival, event = tumor size > 2 cm^3): significant tumor growth inhibition
LA-N-1
  CTCFL mRNA fold increase: 1.2 fold
  MAGEA2 mRNA fold increase: 2.9 fold
  MAGEA3 mRNA fold increase: 1.4 fold
  NFL mRNA fold increase: ns
  NTRK1 mRNA fold increase: 3.2 fold
  NTRK3 mRNA fold increase: 2.4 fold
  S100-β mRNA fold increase: 6.9 fold
  SSX4/4B mRNA fold increase: 3.8 fold
  TUBB3 mRNA fold increase: ns
LA-N-1; primer pair GAGE P1
  GAGE-P1 mRNA fold increase: 2.7 fold
LA-N-1; primer pair GAGE P2
  GAGE-P2 mRNA fold increase: 7.6 fold
LA-N-1; primer pair GAGE P3
  GAGE-P3 mRNA fold increase: 5.1 fold
[3]; mice, 10 mg/kg/day oral gavage, FIG. 2B
  Plasmatic ionic Ca2+ concentration: Mild, non-symptomatic, hypocalcemia
[3]; mouse, in vivo, po, 10 mg/kg/day
  Signs of toxicity: No signs of toxicity were observed
